Data on two compounds can be found in patent US20260273028A1, “PEROXIDASE COMPOSITIONS CONTAINING IMPROVED ENHANCING AGENTS” (FLEN HEALTH PHARMA NV, priority 2022, published 2026).

One experiment concerns the target GOX (Aspergillus niger, UniProt P13006). Briefly: Glucose oxidase (GOX) activity, spectrophotometric assay. It is filed as biochemical. Particulars: reference = no potentiator candidate. How it is done: The natural enzyme GOX is an oxidoreductase that catalyses the oxidation of glucose to gluconic acid and hydrogen peroxide (H2O2) in the presence of water and air. To measure the enzymatic activity of GOX, a standard spectrophotometric assay is performed. In brief, a second oxidoreductase enzyme, peroxidase, and a chromogenic oxygen acceptor, o-dianisidine, are added to the former reaction mix (GOX+glucose+water+air) so that the formation of a coloured compound is achieved that can in turn be measured by spectrophotometry. GOX was tested in 4 different concentrations, i.e., 100, 50, 10 and 1 mg/ml. Each reaction mixture was tested in duplo. In the event GOX activity was evaluated in the presence of a potentiator candidate (=a molecule that might be able to augment the enzymatic activity of GOX), the latter was added in a low and high concentration ranging from 100 to 0.1 mg/ml. The blank consisted of the reaction mix in which the enzymes were absent. After mixing all reaction elements, absorbance was immediately measured with a plate reader (Spectramax ID3, Molecular Devices) every minute for 5 minutes at 35° C. For each combination evaluated, this test was repeated at least 2 times. Results were further analysed in MS Excel and expressed as U/g. Mean blank-corrected data±SD were plotted. Statistical significance compared to the combination without potentiator candidate (reference) was calculated using students' t-tests. Significance is achieved when the obtained p-value is lower than 0,05. Significance levels were defined as p<0.05=*; p<0.01=** and p<0.001=***.

Another experiment concerns S. aureus (ATCC®6538™). Briefly: Microbial challenge testing in alginogel with GOX+EPO. The class given is cell-based. Particulars: isoleucine 0.0025% (w/w). How it is done: In a further experiment, the efficacy of antimicrobial activity enhancement by isoleucine of the GOX combination with eosinophil peroxidase (EPO) was evaluated. In view hereof, a test was set up as described in the section on ‘challenge testing’ described above with the difference that EPO was used instead of LPO.
In brief, microbial challenge testing was performed according to the method described in the European Pharmacopoeia current version chapter 5.1.3 ‘Efficacy of antimicrobial preservation’, but with adapted time points (0, 10, 20, 30, 40, 50, 60, 70 and 80 min instead of 0, 2, 7, 14 and 28 days). […] After preparation, a homogenous sample of 10 g was transferred into a 50 ml conical tube for each alginogel to be evaluated. […] Then, the 50 ml conical tubes containing the alginogel samples to be evaluated were inoculated with 100 μl of the designated inoculum and incubated at 25° C. for 80 minutes. At the start (time point 0) and after 0, 10, 20, 30, 40, 50, 60, 70 and 80 min, the number of viable microorganisms per gram product (expressed as CFU/g) was determined by transferring a sample of 0.5 g of the product into a 15 ml conical tube containing 4.5 ml of sterile diluent and applying general dilution and plate count techniques. For each combination evaluated, the absolute counts (expressed as log(CFU/g)) at each timepoint were visualized in a graph. […]

For experiment [1], the system named is Candida albicans ATCC®10231™. Briefly: MIC determination, broth microdilution, GOX+LPO with potentiator candidate. Particulars: C. albicans; enhancer 0.01%. It is filed as cell-based.

Chain of GOX (P13006 17-605): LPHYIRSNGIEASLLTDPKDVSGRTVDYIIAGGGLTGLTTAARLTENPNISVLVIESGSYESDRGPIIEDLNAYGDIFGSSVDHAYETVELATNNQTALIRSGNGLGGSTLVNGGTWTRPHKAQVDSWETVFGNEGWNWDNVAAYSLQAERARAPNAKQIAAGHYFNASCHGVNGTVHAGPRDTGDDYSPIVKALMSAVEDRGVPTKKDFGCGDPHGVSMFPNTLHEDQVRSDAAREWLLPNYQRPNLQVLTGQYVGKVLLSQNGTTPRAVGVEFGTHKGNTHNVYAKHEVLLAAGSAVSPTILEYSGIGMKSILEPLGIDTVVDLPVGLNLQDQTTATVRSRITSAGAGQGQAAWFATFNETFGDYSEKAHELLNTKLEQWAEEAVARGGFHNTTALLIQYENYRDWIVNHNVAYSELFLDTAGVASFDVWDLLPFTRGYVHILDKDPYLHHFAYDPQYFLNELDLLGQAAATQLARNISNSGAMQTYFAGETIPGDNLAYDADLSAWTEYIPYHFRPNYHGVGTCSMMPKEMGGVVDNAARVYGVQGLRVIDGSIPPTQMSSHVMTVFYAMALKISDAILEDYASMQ

`O=C(O)[C@@H]1CCCN1` [Proline, proline]: the “GOX activity compared to reference” value at GOX (enhancer 0.1 mg/ml) and at GOX (enhancer 100 mg/ml) was “significant increase” throughout.

Consider `CC[C@H](C)[C@H](N)C(=O)O` [Isoleucine, isoleucine], for which the “time to complete reduction of absolute S. aureus counts” value in the experiment with S. aureus (ATCC®6538™) is 80 min. For the same compound, in experiment [1], the “MIC: GOX+LPO enzyme solution needed to completely inhibit growth” value is 0.0000391 % (v/v), the “increase in MIC compared to reference” value turned out to be 4 × and the “increase in MIC compared to the enhancing molecule guaiacol” value worked out at 2 ×.
